Like-named read-outs stand apart in the source and are kept apart here.
How the values were obtained:
Stability to light = type: physicochemical
Sprague-Dawley rats [1] = system: Sprague-Dawley rats
Method: (§1) The drug was administered using a graduated syringe and a 20×3 inch animal feeding needle. Drug was given to each animal in a single dose per day.
Animals were weighed on the first day of the study and once per week thereafter, and the body weights recorded. The body weights were used for the dosage calculations. For all the Main Study and Recovery animals, food (Purina Certified Rodent Chow, meal form) was placed into tared glass jars and left in the animal cages. Jars were removed and weighed once weekly. Food was added to the jars when necessary. Food consumption was not recorded for the animals used in the toxicokinetic satellite studies.
(§2) Urine was collected from animals in the Main Study and Recovery groups during week 4 of the treatment period, and from Recovery group animals during week 4 of the recovery period. Urine was analyzed for: blood (hemoglobin and erythrocytes), bilirubin, color, glucose, ketones, leukocytes, microscopic evaluations of any urine sediment, […], pH, protein, specific gravity, transparency, and urobilinogen.
(§3) Animals were euthanized by inhalation of carbon dioxide. A complete necropsy was performed on all Main Study and Recovery group animals that died, or were euthanized due to moribund conditions, or were euthanized on scheduled sacrifice.

Sprague-Dawley rats [2] = settings: for epididymis histology: high dose rats
Method: Ninety-eight male and ninety-eight female Sprague-Dawley (Crl:CD®(SD) IGS BR) Charles River, Hollister, Calif. 95023) rats, approximately 8 to 10 weeks old, were used for the study. The rats were divided into the following groups: non-treated control, vehicle control, 0.005 mg/kg/day, 0.015 mg/kg/day and 0.15 mg/kg/day AGN 194310. AGN 194310 has the following chemical structure: [drawing 18]
The AGN 194310 compound was provided as follows: the compound was dissolved in capric/caprylic triglyceride (CCT) at a variety of doses, either 0.001% (v/v) AGN 194310, 0.003% (v/v) AGN 194310, or 0.01% (v/v) AGN 194310.
One hundred ninety-six animals were distributed into thirteen groups as follows: Groups 1 through 5 were Main Study groups. Groups 6-9 were used for Toxicokinetic studies. Groups 10-13 were Main Study Recovery groups.
as §1, §2, §3
The following organs were weighed for necroscopized animals: adrenal glands, ovaries, kidneys, pituitary gland, liver, spleen, heart, testes, and brain. In the case of organ pairs, both organs were weighed together.
The following tissues and organs were isolated, trimmed if necessary, and preserved in 10% buffered formalin for histopathological evaluation: adrenal glands, mammary gland (with skin), aorta, ovaries, bone/bone marrow, pancreas, femur, pituitary gland, tibia, prostate gland, knee joint, salivary glands, parotid, brain, sub-maxillary, cervix sciatic nerve, diaphragm, seminal vesicle, epididymides, skeletal muscle (thigh), eyes, spinal chord (thoracic), spleen, esophagus, sternum, stomach, testes, duodenum, thymus, jejunum, thyroid gland with parathyroids, ileum, any tissues with lesion(s), cecum, tongue, colon, trachea, heart, bladder, kidneys, uterus, liver, ureter, lungs, urethra, lymph nodes (vaginal, cervical, mediastinal, mesenteric).
Target tissues and organs from the Vehicle (control) and high-dose groups were imbedded in paraffin, and tissue sections made. The sections were mounted and stained with hematoxylin and eosin using standard histological techniques; such histopathological evaluation was performed using techniques well known in the art.
In the Recovery dosage groups that were so evaluated, the selected tissues were prepared and evaluated as set forth above.

male Sprague Dawley rats = assay: Reversibility of spermatogenic arrest, oral AGN 194310 for 4 weeks and recovery (Example 3); type: in vivo, rat
Method: Groups of male Sprague Dawley rats were treated orally for 4 weeks with either 0, 0.075, or 0.150 mg/kg/day of AGN 194310. Three to six animals from each group were sacrificed after 2 weeks of treatment, 6 animals from each group were sacrificed following 4 weeks of treatment and 6 animals from each group were sacrificed after 18-23 weeks of subsequent recovery after cessation of treatment. Histological and pathological examinations were done of the sacrificed animals, as in Example 1. Additionally, the animals in the 23 week recovery group were mated to normal, untreated female Sprague Dawley rats before being sacrificed to assess the reproductive function.

male cynomologus monkeys = assay: Preliminary test of AGN 194310 in male cynomologus monkeys; type: in vivo, cynomologus monkey; settings: 5 male cynomologus monkeys, daily dosage of 1.25 mg/kg
Source text: Those of skill in the art will also recognize that both rats and monkeys are commonly used and accepted animal models for drug efficacy in humans.

Sprague-Dawley rats [3] = assay: Topical treatment of Sprague-Dawley rats with AGN 194310 cream for 28 days (Example 2); type: in vivo, rat
Method: Twenty-nine male and twenty-nine female Sprague-Dawley rats, approximately 7 weeks old were used for the study. Five rats/sex/group were designated as Main Study animals: (vehicle control, 0.025 mg/kg/day AGN 194310, and 0.25 mg/kg/day AGN 194310), and 7/sex/group designated as toxicokinetic satellite animals (0.025 mg/kg/day AGN 194310 and 0.25 mg/kglday AGN 194310). No “vehicle alone” control group was made for the toxicokinetic satellite animals. In this study there was no Recovery group.
The animals' backs were maintained shaven during the course of the study for application of the topical cream. The animals were treated daily with a topical formulation containing either AGN 194310 vehicle cream alone, 0.01% (w/w) AGN 194310 in the same vehicle cream, or 0.1% (w/w) AGN 194310 in the same vehicle cream. The vehicle cream consisted of a mixture of the following ingredients:
Daily dosages were calculated using the most recently obtained body weight, as shown below. The test or control creams were applied for 28 consecutive days to the shaved back of each animal in an area approximately equal to 35.5 cm^2. Application was made using a repeat pipettor, and the drug gently massaged into the skin. An Elizabethan collar was affixed around each animal's neck for a period of about 6 hours following treatment to prevent removal or systemic ingestion of the drug.
Blood was drawn at day 29 via cardiac puncture, as described in Example 1. The animals were first permitted to fast for approximately 16 hours prior to blood collection. Satellite animals were sacrificed on day 28.

[4] = male rats of the Recovery group, approximately one month without drug
[5] = oral 0.075 mg/kg, after 18 weeks of recovery
[6] = oral 0.075 mg/kg, after 23 weeks of recovery

## CCc1ccc(C2=CC(C)(C)Sc3ccc(C#Cc4ccc(C(=O)O)cc4)cc32)cc1 [AGN 194310, 4-[[4-(4-ethylphenyl)-2,2-dimethyl-(2H)-thiochromen-6-yl]-ethynyl]-benzoic acid]
Stability to light
  stability to normal light: relatively stable to normal light
Sprague-Dawley rats [1]; rat, in vivo, po
  urinalysis parameters: no apparent treatment-related effects
Sprague-Dawley rats [1]; rats, oral, 0.005-0.15 mg/kg/day, course of the study
  treatment-related deaths: No treatment-related deaths
Sprague-Dawley rats [1]; rats, oral, end of the treatment period
  postmortem pathological examination: no noticeable differences
Sprague-Dawley rats [2]; high dose males 0.15 mg/kg/day, usual four or more layers in normal tubules
  germinal cell layers lining the seminiferous tubules: one to two layers of germinal cells
Sprague-Dawley rats [2]; end of recovery
  epididymis histology: absence of stored epididymal sperm
Sprague-Dawley rats [2]; end of treatment
  epididymis histology: increase in exfoliated cells
Sprague-Dawley rats [2]; [4]
  reversibility of inhibition (focal increase in germ cell layers in individual tubules): reversibility of such inhibition was also evident
  spermatogenesis (morphology): continuing cessation of spermatogenesis
  testicular atrophy: testicular atrophy was evident
Sprague-Dawley rats [2]; male rats, oral 0.15 mg/kg/day, Recovery group, end of the recovery period
  spermatozoa counts in urine: no spermatozoa counts
Sprague-Dawley rats [2]; male rats, oral 0.15 mg/kg/day, end of the recovery period
  testes size at postmortem examination: apparent reduction of testes size in all five male rats
Sprague-Dawley rats [2]; male rats, oral high dose 0.15 mg/kg/day, end of the treatment and recovery periods
  testes weight: reduction in testes weight
Sprague-Dawley rats [2]; male rats, oral intermediate dose 0.015 mg/kg/day, end of treatment
  spermatogenic arrest (testes histology): No such effect
Sprague-Dawley rats [2]; male rats, oral low dose 0.005 mg/kg/day, end of treatment
  spermatogenic arrest (testes histology): No such effect
Sprague-Dawley rats [2]; male rats, oral, other dosage groups (0.005 and 0.015 mg/kg/day)
  testes weight: no statistically significant reduction of testes weight
Sprague-Dawley rats [2]; oral high dose 0.15 mg/kg/day, end of treatment
  male rats with spermatogenic arrest (testes histology): 10/10
Sprague-Dawley rats [2]; rat, in vivo
  rats with inflammation or damage to stromal or vascular elements of the testis: None
Male Sprague Dawley rats; all the treated animals, oral 0.075 mg/kg
  seminal vesicles: normal
Male Sprague Dawley rats; oral 0.075 mg/kg
  round spermatids in the epididymal caput and cauda: No increase
Male Sprague Dawley rats; oral 0.075 mg/kg, after 2 and 4 weeks of treatment
  rats with evidence of spermatogenic arrest: All rats
Male Sprague Dawley rats; oral 0.075 mg/kg, after 4 weeks of treatment
  weight of the testes and epididymides: significantly reduced
Male Sprague Dawley rats; [5]
  mature sperm in the epididymides: no mature sperm were seen
  spermatogenesis (histological analysis): active spermatogenesis had resumed
  weight of the testes and epididymides: this weight decrease persisted to some degree
Male Sprague Dawley rats; [6]
  fertility (mating to untreated females): All tested animals were fertile
  rats completely recovered (normal testes weights, complete spermatogenesis cycle, mature sperm in epididymides): 2 of the 3
Male Sprague Dawley rats; oral 0.150 mg/kg, after 2 and 4 weeks of treatment
  rats with spermatogenic arrest: all rats
Male Sprague Dawley rats; oral 0.150 mg/kg, after 23 weeks of recovery
  rats completely recovered (active and complete spermatogenesis, normal testes weight): 4 out of 6
Male Sprague Dawley rats; oral 0.150 mg/kg, after 23 weeks of recovery, remaining two animals
  spermatogenesis in the remaining animals: incomplete spermatogenesis no mature sperm seen in the epididymides histologically
Male Sprague Dawley rats; oral 0.150 mg/kg, after 23 weeks of recovery, the 4 recovered rats
  reproduction of the recovered rats: able to reproduce normally
Male Sprague Dawley rats; when administration is halted
  reversibility of the effects of the drug: fully reversible
Male cynomologus monkeys
  inhibition or arrest of spermatogenesis: did not result in inhibition or arrest of spermatogenesis
Sprague-Dawley rats [3]; majority of males displaying spermatogenic arrest, topical
  germ cells in the head of the epididymis: notable reduction of germ cells
Sprague-Dawley rats [3]; male rats in all groups, topical
  hematological differences versus control rats: no statistically significant hematological differences
Sprague-Dawley rats [3]; rats, topical skin application, 0.025 and 0.25 mg/kg/day, 28 days
  treatment-related skin irritation: did not result in any evidence of treatment-related skin irritation
Sprague-Dawley rats [3]; rats, topical, 0.025 and 0.25 mg/kg/day, 28 days
  clinical observations, body weight, food consumption, gross pathology: No treatment-related clinical observations, differences in body weight, differences in food consumption, or in gross pathology were observed
Sprague-Dawley rats [3]; topical 0.025 mg/kg/day, 28 days
  male rats with atrophy of the seminiferous tubules with concomitant spermatogenic arrest: 0 out of 5
Sprague-Dawley rats [3]; topical 0.25 mg/kg/day, 28 days
  male rats with atrophy of the seminiferous tubules with concomitant spermatogenic arrest: 5 out of 5
